Assay results as given in US20070203085A1, “Methods For Interfering With Fibrosis” (priority 2004, published 2007).

What was measured:
[1] = system: sgk1+/+ and sgk1−/− mice; assay: DOCA/high salt treatment of sgk1+/+ and sgk1−/− mice: blood pressure, plasma electrolytes, salt intake; assay type: in vivo
Description: To explore whether SGK1 may be involved in the signalling of cardiac fibrosis a pellet continuously releasing DOCA (2.4 mg/day) was implanted into both sgk1+/+ and sgk1−/− mice along with 1% NaCl in the drinking water.
Mice deficient in SGK1 (sgk1−/−) were generated as previously described 9. Wild type (sgk1+/+) and SGK1 knockout (sgk1−/−) mice were implanted with a 21 day release 50 mg DOCA pellet (Innovative Research of America, Sarasota, Fla.) in the neck area (28) during anesthesia (intraperitoneal medetomidin 0.5 mg/kg+midazolam 5 mg/kg+fentanyl 0.05 mg/kg which was reversed by subcutaneous atipamezol 2.5 mg/kg+flumazenil 0.5 mg/kg+naloxon 1.2 mg/kg). One day before implantation of DOCA pellets, sgk1−/− and sgk1+/+ mice were weighed and placed individually in metabolic cages (Tecniplast Hohenpeissenberg, Germany) for basal 24 hour urine collection. Mice had free access to a standard mouse diet (Altromin, Heidenau, Germany) and tap water and/or 1% or 2% NaCl. The inner wall of the metabolic cages was siliconized and urine was collected under water-saturated oil. Systolic arterial blood pressure was determined by the tail-cuff method before and on days 1, 2, 4, 6, 10 and 14 of DOCA/1% NaCl treatment 29. On day 18 of DOCA/high salt treatment, 24 hour urine and body weight were again determined, animals anesthetized (intraperitoneal ketamine and xylazine) and 200 μl of blood withdrawn into heparinized capillaries by puncturing the retro-orbital plexus. Plasma and urinary concentrations of Na+ and K+ were measured by flame photometer (ELEX 6361, Eppendorf, Germany), Cl— concentrations by electrometric titration (Chloridometer 6610, Eppendorf, Germany), Ca2+, phosphorus and creatinine were assessed by commercial diagnostic kits (Sigma, Munich, Germany).

[2] = system: sgk1+/+ and sgk1−/− mice; assay: Cardiac fibrosis by microscopy (H&E and Masson's trichrome) after DOCA/high salt; assay type: in vivo; conditions: 18 day DOCA/high salt
Description: Hearts from untreated or DOCA/high salt treated (18 days) sgk1+/+ and sgk1−/− mice were quickly removed under anesthesia, the weight determined and fixed in 4% paraformaldehyde/0.1 M sodium phosphate buffer (pH 7.2) overnight and embedded in paraffin. Dewaxed 5 μm thick heart muscle sections were stained with H&E and Masson's trichrome (30). Stained paraffin sections were analysed on a Zeiss Axioplan microscope (Zeiss, Jena, Germany). Areas were measured on digitized images using an Axiocam video camera (Zeiss, Jena, Germany) using the manufacture's software (Axiovision, Zeiss, Jena, Germany). Total tissue areas were measured with a 4× objective; fibrotic areas were identified and quantified using a 20× objective. The degree of fibrosis was then calculated as a percentage of total tissue area.

[3] = system: sgk1+/+ and sgk1−/− mice; assay: Cardiac gene transcription after DOCA/high salt (microarray analysis, real-time PCR); assay type: in vivo
Description: Total RNA was isolated from hearts obtained from untreated or DOCA/high salt (48 h) treated sgk1+/+ and sgk1−/− mice using the Qiagen RNeasy Fibrous Tissue Midi Kit according to the manufacture's instructions (Qiagen, Hilden, Germany). Using total RNA from hearts of DOCA/high salt or sham-treated sgk1−/− and sgk1+/+ mice, second-strand syntheses were generated using a commercially available kit (Invitrogen Life Technologies, Rockville, Md.) and an oligo d(T)24 T7 primer. cRNA was generated using biotin-labelled CTP and UTP by in vitro transcription using a T7 promoter-coupled double stranded cDNA as template and the T7 RNA transcript labelling kit (ENZO Diagnostics, Farmingdale, N.Y.). The cRNA was fragmented and hybridised to the mouse genome MOE430A oligonucleotide array chip (Affymetrix, Santa Clara, Calif.). The array chips were then stained using phycoerythrin conjugated streptavidin (Molecular Probes, Invitrogen Life Technologies, Rockville, Md.) and the fluorescence intensities were determined using a laser confocal scanner (Agilent, Affymetrix, Santa Clara, Calif.). The intensity of the scanned images was analysed using Microarray Suite Version 5 (Affymetrix, Santa Clara, Calif.). Global scaling was applied to all arrays such that the mean intensity of each array was equivalent. In global scaling, the raw signal value of each probe cell was multiplied by a scaling factor.

[4] = system: CTGF; assay: Cardiac CTGF expression by Western blotting after DOCA/salt; assay type: in vivo, mice; conditions: for CTGF expression in cardiac tissue (Western blot): DOCA/high salt for 18 days
Description: Whole hearts from untreated and DOCA/high salt treated (18 days) sgk1+/+ and sgk1−/− mice were removed and immediately frozen in liquid nitrogen, the tissue was then homogenised using a glass homogeniser in lysis buffer containing 50 mM Tris-HCl, pH 7.4, 100 mM NaCl, 1 mM EDTA, 1 mM EGTA, 50 mM sodium fluoride, 5 mM sodium pyrophosphate, 1 mM sodium orthovanadate, 1% Triton X-100, 1% sodium deoxycholate, 1% sodium doecyl sulphate and protease cocktail inhibitor (Roche, Basel, Switzerland), the homogenates were centrifuged at 10,000 rpm, 4° C. for 15 min, the supernatant was removed and used for Western blotting. sgk1+/+ and sgk1−/− mouse lung fibroblasts in 60 mm culture dishes were serum deprived for 18 h prior to the addition of DOCA (10 μM), 24 h later the cells were lysed. Whole cell lysates (50 μg) and heart homogenates (70 μg) were separated by SDS-page (10% Tris-Glycine), transferred to nitrocellulose membranes, blocked for 1 h in blocking buffer (5% fat-free milk in PBS containing 0.1% Tween) and incubated overnight at 4° C. with a goat polyclonal CTGF primary antibody (diluted 1:400 in blocking buffer, Santa Cruz, Heidelberg, Germany). After incubation with a HRP-conjugated anti-goat secondary antibody (Santa Cruz, Heidelberg, Germany) visualization with ECL was performed according to manufacture's instructions (Amersham, Freiburg, Germany). Membranes were also probed with a primary β-tubulin (Santa Cruz, Heidelberg, Germany) antibody as a loading control. Densitometric analysis of CTGF was performed using Scion Image (Scion, Md., USA) and normalized using β-tubulin.

[5] = system: CTGF; assay: CTGF expression in primary mouse lung fibroblasts after DOCA stimulation (Western blot); assay type: cell-based; conditions: DOCA 10 μM, 24 h; sgk1+/+ and sgk1−/− cells
Description: To harvest lung fibroblasts from sgk1+/+ and sgk1−/− mice (8-14 weeks old), whole lungs were removed and transferred to 90 mm cell culture dishes containing 2 ml of DMEM supplemented with 10% fetal calf serum, 100 U/ml Penicillin, […] Streptomycin and 2 mM L-glutamine (Gibco-Invitrogen, Karlsruhe, Germany). The tissue was cut into small pieces and cultured under standard cell culture conditions (37° C., 5% CO2). Cell growth was observed 2-4 days after initial plating. Fibroblasts were identified by positive staining for fibronectin and used in experiments between passages 2-6. Increase of SGK1 mRNA by DOCA treatment and absence of SGK1 in sgk1−/− mice lung fibroblasts was confirmed by realtime PCR (data not shown). […]

For `CC(=O)OCC(=O)[C@H]1CC[C@H]2[C@@H]3CCC4=CC(=O)CC[C@]4(C)[C@H]3CC[C@]12C` [DOCA], the hypokalemia ([1]; DOCA/high salt for 18 days, sgk1+/+ vs sgk1−/− mice) was “significant hypokalemia in sgk1+/+ but not in sgk1−/− mice”, the “salt intake from bottle 2 (1% NaCl)” value ([1]; sgk1+/+ mice, after implanting the DOCA pellet) was “pronounced increase in salt intake” and the blood pressure ([1]; sgk1−/− and sgk1+/+ mice, DOCA/high salt for 18 days) was “statistically significant increases in blood pressure”. The “fibrosis of the heart” value ([2]; sgk1+/+ mice) was “marked fibrosis of the heart”, the “fibrosis of the heart” value ([2]; sgk1−/− mice) was “without any appreciable effect on the heart” and the “fold increase in SGK1/GAPDH copy number (SGK1 transcription)” value ([3]; heart, sgk1+/+ mice, 48 h DOCA/high salt vs untreated sgk1+/+ mice, real-time PCR) was 2.10±0.14 fold. For the same compound, the “induction of fibrosis genes (procollagens, integrin α5, proteoglycan 4, CTGF), microarray” value ([3]; sgk1+/+ mice, 48 h DOCA/high salt) was “induced several genes involved in the pathogenesis of fibrosis”, the “induction of fibrosis genes (procollagens, integrin α5, proteoglycan 4, CTGF), microarray” value ([3]; sgk1−/− mice, DOCA/high salt) was “none of these genes were induced” and the “cardiac CTGF expression, CTGF/β-tubulin densitometric analysis” value ([4]; sgk1+/+ mice, DOCA/1% salt (untreated: 0.9±0.2), P<0.01) was 4.7±1.0 arbitrary units. The “CTGF expression in cardiac tissue (Western blot)” value ([4]; sgk1+/+ mice) was “markedly upregulated CTGF expression”, the “cardiac CTGF expression, CTGF/β-tubulin densitometric analysis” value ([4]; sgk1−/− mice, DOCA/high salt (untreated: 1.5±1.0)) was 1.7±0.7 arbitrary units and the “CTGF expression in cardiac tissue (Western blot)” value ([4]; sgk1−/− mice) was “unaltered”. The “CTGF levels in primary mouse lung fibroblasts” value [5] was “elevated CTGF levels only in the sgk1+/+ cells”.
